Measurements taken from PubChem BioAssay AID1259407 (Chemical Carcinogenesis Research Information System (CCRIS), 2018).
The source made the active and inactive calls. How the calls were made is not given here.

Test system: CCRIS mutagenicity, Ames/micronucleus/aberration tests
Assay: CCRIS mutagenicity studies

Measured: mutagenic call

Nc1cccc(N)c1
inactive: Test System: AMES SALMONELLA TYPHIMURIUM, Strain/Indicator: TA1535, Metabolic Activation: HAMSTER, LIVER, S-9, AROCLOR 1254 (10%), Method: PREINCUBATION inactive; negative | Test System: AMES SALMONELLA TYPHIMURIUM, Strain/Indicator: TA1535, Metabolic Activation: NONE, Method: PREINCUBATION inactive; negative | Test System: AMES SALMONELLA TYPHIMURIUM, Strain/Indicator: TA1535, Metabolic Activation: RAT, LIVER, S-9, AROCLOR 1254 (30%), Method: PREINCUBATION inactive; negative | Test System: AMES SALMONELLA TYPHIMURIUM, Strain/Indicator: YG1024, Metabolic Activation: NONE, Method: PREINCUBATION inactive; negative | Test System: AMES SALMONELLA TYPHIMURIUM, Strain/Indicator: YG1024, Metabolic Activation: NONE, Method: STANDARD PLATE inactive; negative | Test System: AMES SALMONELLA TYPHIMURIUM, Strain/Indicator: YG1029, Metabolic Activation: NONE, Method: STANDARD PLATE inactive; negative | Test System: AMES SALMONELLA TYPHIMURIUM, Strain/Indicator: YG1029, Metabolic Activation: PLANT (PERSEA AMERICANA) S-117, Method: STANDARD PLATE inactive; negative | Test System: Ames Salmonella typhimurium, Strain/Indicator: TA98, Metabolic Activation: None, Method: Preincubation inactive; negative | Test System: Ames Salmonella typhimurium, Strain/Indicator: TA100, Metabolic Activation: None, Method: Preincubation inactive; negative | Test System: Ames Salmonella typhimurium, Strain/Indicator: TA100, Metabolic Activation: Rat, Liver, S9, Sodium phenobarbital and 5,6-benzoflavone (10%), Method: Preincubation inactive; negative | Test System: Ames Salmonella typhimurium, Strain/Indicator: TA100, Metabolic Activation: Rat, Liver, S9, Sodium phenobarbital and 5,6-benzoflavone, Method: Preincubation inactive; positive (repeat assay negative) | Test System: Ames Salmonella typhimurium, Strain/Indicator: TA1535, Metabolic Activation: None, Method: Preincubation inactive; negative | Test System: Ames Salmonella typhimurium, Strain/Indicator: TA1535, Metabolic Activation: Rat, Liver, S9, Sodium phenobarbital and 5,6-benzoflavone (10%), Method: Preincubation inactive; negative | Test System: Ames Salmonella typhimurium, Strain/Indicator: TA1537, Metabolic Activation: None, Method: Preincubation inactive; negative | Test System: E. coli, Strain/Indicator: WP2uvrA/pKM101, Metabolic Activation: None, Method: Preincubation inactive; negative | Test System: E. coli, Strain/Indicator: WP2uvrA/pKM101, Metabolic Activation: Rat, Liver, S9, Sodium phenobarbital and 5,6-benzoflavone (10%), Method: Preincubation inactive; negative | Test System: UDS RODENT HEPATOCYTES, Strain/Indicator: THY INCORP (NON-S-PHASE), Metabolic Activation: NONE, Method: AUTORADIOGRAPHY inactive; negative
active: Test System: AMES SALMONELLA TYPHIMURIUM, Strain/Indicator: TA100, Metabolic Activation: S-9, Method: PREINCUBATION active; positive | Test System: AMES SALMONELLA TYPHIMURIUM, Strain/Indicator: TA1535, Metabolic Activation: HAMSTER, LIVER, S-9, AROCLOR 1254 (30%), Method: PREINCUBATION active; positive | Test System: AMES SALMONELLA TYPHIMURIUM, Strain/Indicator: TA1535, Metabolic Activation: RAT, LIVER, S-9, AROCLOR 1254 (5%), Method: PREINCUBATION active; positive | Test System: AMES SALMONELLA TYPHIMURIUM, Strain/Indicator: TA1537, Metabolic Activation: RAT, LIVER, S-9, AROCLOR 1254 (4 OR 10%), Method: STANDARD PLATE active; positive | Test System: AMES SALMONELLA TYPHIMURIUM, Strain/Indicator: TA1538, Metabolic Activation: RAT, LIVER, S-9, AROCLOR 1254 (4 OR 10%), Method: STANDARD PLATE active; positive | Test System: AMES SALMONELLA TYPHIMURIUM, Strain/Indicator: TA1538, Metabolic Activation: RAT, LIVER, S-9, PHENOBARBITAL, Method: STANDARD PLATE active; positive | Test System: AMES SALMONELLA TYPHIMURIUM, Strain/Indicator: YG1021, Metabolic Activation: RAT, LIVER, S-9, PHENOBARBITAL AND 5,6-BENZOFLAVONE, Method: PREINCUBATION active; positive | Test System: AMES SALMONELLA TYPHIMURIUM, Strain/Indicator: YG1024, Metabolic Activation: CELL-FREE PLANT MIXTURE TX1MX, Method: PREINCUBATION active; positive | Test System: AMES SALMONELLA TYPHIMURIUM, Strain/Indicator: YG1024, Metabolic Activation: PLANT (PERSEA AMERICANA) S-117, Method: STANDARD PLATE active; positive | Test System: AMES SALMONELLA TYPHIMURIUM, Strain/Indicator: YG1024, Metabolic Activation: PLANT (ZEA MAYS) S-9, Method: STANDARD PLATE active; positive | Test System: AMES SALMONELLA TYPHIMURIUM, Strain/Indicator: YG1024, Metabolic Activation: RAT LIVER S-9, AROCLOR 1254, Method: STANDARD PLATE active; positive | Test System: AMES SALMONELLA TYPHIMURIUM, Strain/Indicator: YG1024, Metabolic Activation: RAT LIVER S-9, Method: STANDARD PLATE active; positive | Test System: AMES SALMONELLA TYPHIMURIUM, Strain/Indicator: YG1024, Metabolic Activation: RAT, LIVER, S-9, PHENOBARBITAL AND 5,6-BENZOFLAVONE, Method: PREINCUBATION active; positive | Test System: AMES SALMONELLA TYPHIMURIUM, Strain/Indicator: YG1024, Metabolic Activation: TOBACCO, TX1 CELLS, Method: PREINCUBATION active; positive | Test System: AMES SALMONELLA TYPHIMURIUM, Strain/Indicator: YG1041, Metabolic Activation: RAT, LIVER, S-9, PHENOBARBITAL AND 5,6-BENZOFLAVONE, Method: PREINCUBATION active; positive | Test System: Ames Salmonella typhimurium, Strain/Indicator: TA98, Metabolic Activation: Rat, Liver, S9, Sodium phenobarbital and 5,6-benzoflavone (10%), Method: Preincubation active; positive | Test System: Ames Salmonella typhimurium, Strain/Indicator: TA1537, Metabolic Activation: Rat, Liver, S9, Sodium phenobarbital and 5,6-benzoflavone (10%), Method: Preincubation active; positive
